Where a chain is given by its changes, count along the chain named.
Assays:
hVAChT M320A = biological target: T1, hVAChT M320A (Homo sapiens, UniProt Q16572, M320A); test: [3H]vesamicol saturation binding; conditions: pH 7.4
T1 sequence (Q16572 1-532 M320A): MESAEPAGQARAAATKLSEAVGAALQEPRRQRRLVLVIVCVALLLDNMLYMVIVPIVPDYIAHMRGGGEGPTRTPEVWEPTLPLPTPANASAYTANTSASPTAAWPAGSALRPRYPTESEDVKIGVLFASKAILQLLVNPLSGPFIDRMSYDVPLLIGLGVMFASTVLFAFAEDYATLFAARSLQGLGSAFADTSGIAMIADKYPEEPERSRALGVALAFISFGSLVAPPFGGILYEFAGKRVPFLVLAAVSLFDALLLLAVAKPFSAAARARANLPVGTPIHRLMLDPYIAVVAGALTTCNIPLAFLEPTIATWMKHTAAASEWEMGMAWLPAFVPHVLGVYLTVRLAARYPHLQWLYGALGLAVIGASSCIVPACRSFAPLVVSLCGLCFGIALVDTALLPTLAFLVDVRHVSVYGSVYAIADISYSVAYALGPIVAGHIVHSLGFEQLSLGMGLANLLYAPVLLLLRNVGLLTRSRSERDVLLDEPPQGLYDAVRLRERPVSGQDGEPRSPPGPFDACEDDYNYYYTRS

VAChT F335A = conditions: ref Ojeda et al. (2004); cited from earlier work
hVAChT F231A = biological target: T2, hVAChT F231A (Homo sapiens, UniProt Q16572, F231A); test: ACh equilibrium binding by competition against [3H]vesamicol
T2 sequence (Q16572 1-532 F231A): T1 sequence (Q16572 1-532 M320A) with F231A, A320M

hVAChT M316A = biological target: T3, hVAChT M316A (Homo sapiens, UniProt Q16572, M316A); test: as above
T3 sequence (Q16572 1-532 M316A): T1 sequence (Q16572 1-532 M320A) with M316A, A320M

hVAChT K317A = biological target: T4, hVAChT K317A (Homo sapiens, UniProt Q16572, K317A); test: as above
T4 sequence (Q16572 1-532 K317A): T1 sequence (Q16572 1-532 M320A) with K317A, A320M

hVAChT A330V = biological target: T5, hVAChT A330V (Homo sapiens, UniProt Q16572, A330V); test: [3H]ACh transport; format: biochemical
T5 sequence (Q16572 1-532 A330V): T1 sequence (Q16572 1-532 M320A) with A320M, A330V

Kd (hVAChT F231A) | FHA, fraction of the ACh sites that have high affinity (hVAChT F231A; F231A hVAChT, pH 7.4) | Kd (hVAChT M316A) | FHA, fraction of the ACh sites that have high affinity (hVAChT M316A; M316A hVAChT, pH 7.4) | Kd (hVAChT K317A) | FHA, fraction of the ACh sites that have high affinity (hVAChT K317A; K317A hVAChT, pH 7.4) | Vmax/Bmax, ACh transport normalized to Bmax (hVAChT A330V; pH 7.4) | Km (hVAChT A330V; read-out: KM, Michaelis-Menten constant for ACh transport, pH 7.4) | Structure (SMILES) | Bmax, maximal specific [3H]vesamicol binding (VAChT expression level) (hVAChT M320A) | weaker binding of vesamicol (VAChT F335A)
 |  |  |  |  |  |  |  | O[C@@H]1CCCC[C@H]1N1CCC(c2ccccc2)CC1 (racemic) [vesamicol, ( )-trans-2-(4-phenylpiperidino)cyclohexanol] | 62 ± 5 pmol/mg | ~ 3 fold
5.8 ± 1.2 mM | 0.67 ± 0.05 | 8.3 ± 0.7 mM | 0.74 ± 0.03 | 6.9 ± 1.2 mM | 0.72 ± 0.06 | 6.3 ± 1.3 min⁻¹ | 2.2 ± 0.9 mM | CC(=O)OCC[N+](C)(C)C [ACh, acetylcholine] |  | 
